{"source": "patent US6355430B1", "about": "“Diagnostic and screening methods employing KIAA0101” (Millennium Pharmaceuticals, Inc., priority 1998, dated 2002)", "tested_on": "KIAA0101 expression in LNCaP cells", "assay": "Expression of KIAA0101 in LNCaP prostate cancer cells treated with casodex", "type": "cell-based, human", "description": "In order to examine the effect of casodex, an anti-androgen, on the expression of KIAA0101, LNCaP cells (androgen-sensitive prostate cancer cells) were grown to 70% confluence in RPMI-1640 (10% FBS). The cultures were then pretreated for 24 hours in dye-free RPMI-1640 containing 5% charcoal stripped serum. The cultures were then treated with either 1 nM R1881 or 100 […] casodex in RPMI-1640 containing 5% charcoal stripped serum prior to harvesting and extraction of total mRNA for expression analysis."}
{"compound": "CC(O)(CS(=O)(=O)c1ccc(F)cc1)C(=O)Nc1ccc(C#N)c(C(F)(F)F)c1", "note": "(centres unmarked) [casodex]", "values": [{"measurement": "decrease (drop) in KIAA0101 expression", "setting": "LNCaP cells (androgen-responsive prostate cancer cell line), in the presence of casodex", "value": 3, "unit": "fold"}, {"measurement": "KIAA0101 expression lower in the presence of casodex than in the presence of R1881", "setting": "LNCaP cells, casodex versus R1881 (androgen agonist, 1 nM)", "value": 3, "unit": "fold"}]}
